Tests used:
[1] = tested on: Influenza A virus; test: Antiviral activity against OSV-resistant influenza A virus A/LiaoNing-ZhenXing/1109/2010 (H1N1) strain; format: functional, organism-based
[2] = tested on: Influenza A virus; test: Antiviral activity against amantadine and ribavirin-resistant influenza A virus A/HuNan-huHui/1222/2010 (H3N2) strain; format: functional, organism-based

Structure (SMILES) | IC50 [1] | IC50 [2]
NC12CC3CC(CC(C3)C1)C2 [AMANTADINE] | 0.82 µM | > 200 µM
C=CC(C)(C)c1[nH]c2ccccc2c1/C=c1\[nH]c(=O)c(=C)[nH]c1=O [NEOECHINULIN B] | 16.9 µM | 22.2 µM
CCOC(=O)C1=C[C@@H](OC(CC)CC)[C@H](NC(C)=O)[C@@H](N)C1 [OSELTAMIVIR] | > 200 µM | > 20.5 µM
NC(=O)c1ncn([C@@H]2O[C@H](CO)[C@@H](O)[C@H]2O)n1 [RIBAVIRIN] | 1.05 µM | > 150 µM
